Columns and labels:
[1] = Lamellar-to-hexagonal (HII) transition temperature in DEPE model membranes by Differential Scanning Calorimetry; type: physicochemical; conditions: for Transition temperature (lamellar to HII): DEPE (4 mM), 200 μM compound, series A, control 64.5; for Temperature of lamellar-to-hexagonal transition: DEPE membranes, DEPE:D-PUFA 10:1 (mol:mol)
Protocol: The transition temperature was determined by Differential Scanning Calorimetry. The proportion DEPE:D-PUFA was 10:1 (mol:mol) in all cases. Lamellar-to-hexagonal transition is an important parameter that reflects relevant signalling properties of cell membranes. […] When this occurs, certain peripheral membrane proteins (such as G proteins, protein kinase C or Ras protein) can more easily bind to the membrane, while others have a poor interaction (e.g., the Gα-protein), so changes in the HII transition temperature are important in regulating cellular functions related to health and human therapy (Escriba et al., 1995, Vogler et al., 2004; Escriba, 2006).
Control values correspond to model membranes in the absence of fatty acids. The reduction in HII transition temperature obtained by using the D-PUFA of the invention indicates an increased induction of membrane discontinuities, generating anchoring sites in the membrane for peripheral proteins and leads to better regulation of cell signalling and, therefore, greater effectiveness in the control of certain diseases.

[2] = test system: Spontaneously Hypertensive Rats (SHR); experiment: Blood pressure of SHR rats (cuff-tail method); type: in vivo, rat; conditions: 200 mg/kg day p.o., 30 days, before treatment 214 mmHg
Protocol: (§1) In a separate experimental series, it was studied the effect of D-PUFA molecules of the present invention on blood pressure of SHR rats. In these animals both, blood pressure and levels of apolipoprotein AI (apoA-I) were measured. For these experiments Spontaneously Hypertensive Rats (SHR) were treated for 30 days with vehicle (water control) or compounds of the invention (200 mg/kg day, p.o.). At the end of this period, the animals' blood pressure and serum levels of apoA-I were measured. […] For these experiments, non-invasive methods for determining blood pressure (cuff-tail method) and gene expression for apoA-I (RT-PCR) described in the literature (Terés et al., 2008) were used. The usefulness of the molecules of the present invention for the treatment of cardiovascular diseases is reinforced by its capacity for reducing the levels of serum cholesterol and triglycerides (see below).
(§2) The average values of SHR before treatment were 214 mmHg and 100% respectively.

Jurkat cells = experiment: Human leukaemia (Jurkat cells); type: cell-based; conditions: 72 hours
Protocol: (§3) Overall, it may be seen that the series of compounds A and B are the best, so the effectiveness of these series against the development of leukaemia and liver cancer (Tables 9 and 10) was tested.

[3] = test system: apolipoprotein AI (apoA-I); experiment: Levels of apoA-I in SHR rats (RT-PCR); type: in vivo, rat; conditions: 200 mg/kg day p.o., 30 days, before treatment 100%
Protocol: as §1, §2

3T3 cells = experiment: Percentage of total PUFAs in membranes of 3T3 cells treated with fatty acids (gas chromatography); type: cell-based; conditions: 100 μM, 48 hours, mean ± SEM of four measures, control 32.4 ± 2.1
Text: To perform these experiments, membranes were extracted and total fatty acids were obtained by hydrolysis in basic medium. Methanolic bases of these fatty acids were quantified by gas chromatography. The data shown are averages of four independent measures of PUFA's mass divided by the total fatty acids and expressed as a percentage. It is also shown is standard error of the mean.
The control corresponds to a culture without the presence of added natural or synthetic fatty acids. Cells in their natural form present PUFAs in their membranes, but the presence in the medium of the D-PUFA molecules of the invention increases these levels of PUFAs in the cell membrane.

lung cancer cells A549 = experiment: Growth of lung cancer cells A549 (IC50); type: cell-based, human; conditions: 72 hours of incubation
Method in brief: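 Cell counts taken with compound, mean of three independent experiments. Applies to A549 (RPMI 1640, 10% FBS, 37 °C, 5% CO2).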

HepG2 cells = experiment: Liver cancer (HepG2 cells); type: cell-based; conditions: Homo sapiens, HepG2; 72 hours
Protocol: These charts show the antitumor efficacy of the compounds of this invention against the growth of breast cancer cells, brain (glioma), and lung cancer. […] The other experimental conditions are identical to those described in the preceding paragraph.
as §3

α-synuclein = experiment: Expression of α-synuclein in neuronal cultures (cells P19); type: cell-based; conditions: untreated cells 100%
COX-2 = experiment: Expression of COX-2 in LPS-stimulated monocytes in culture; type: cell-based, human; conditions: positive control with LPS 100%
Text: FIG. 5A also presents a drawing showing the COX-2/COX-1 relationship as % of control (Y axis) for the following compounds (X-axis): OOA (2-hydroxy-oleic acid), OLA (182A1), OALA (183A1), OGLA (183A2), OARA (204A1), OEPA (205A1), ODHA (226A1). […] The reduction of this factor is directly related to the anti-inflammatory medication. The compounds are the same as in the left pane.
(§4) Cyclooxygenase (COX) is an enzyme that can bind to membranes, taking certain lipids from there and catalyze its conversion into molecules that can have inflammatory activity. The binding of this enzyme to membrane lipids is due in part to the membrane lipid structure. The increased activity of COX 1 and 2 isoforms has been associated with the etiopathology of a number of inflammatory diseases by […] arachidonic acid metabolism to produce pro-inflammatory lipid mediators. The D-PUFA compounds of the present invention produced a series of cellular signals that alter the metabolism of arachidonic acid and, as a result, they inhibit the activity and expression of COX in monocytes in culture (Table 14 and FIG. 5A). […] For this purpose, C57BL6/J mice were treated with the various derivatives (200 mg/kg, p.o.,) after inducing an inflammatory reaction in them by intraperitoneal injection of 20 μg of bacterial lipopolysaccharide (LPS).
Inhibition of COX-2 expression in monocytes. Percentages of inhibition (compared to the positive control in the presence of LPS, 100%) of COX-2 protein levels (expression) by the various fatty acid derivatives.

[4] = Serum cholesterol, triglycerides and glucose in SHR rats (colorimetric); type: in vivo, rat; conditions: 200 mg/kg daily p.o., 28 days, untreated rats 100%
Protocol: In a separate experimental series, SHR rats were treated with various compounds of the present invention (200 mg/kg daily, 28 days, p.o.) and the levels of cholesterol, triglycerides and glucose in serum were measured by colorimetric methods. It was observed that these compounds induce significant (and in many cases marked) reductions in the levels of these metabolites (Table 16).
Values are expressed as percent, and in untreated (control) rats values were always considered as 100%.

[5] = test system: brain cancer cell (glioma) U118; experiment: Brain cancer (glioma) U118 cell growth; type: cell-based; conditions: 72 hours of incubation
Method in brief: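 Cell counts taken with compound, mean of three independent experiments. Applies to U118.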

TNF-α = experiment: Production of TNF-α in serum of LPS-injected C57BL6/J mice; type: in vivo; conditions: LPS 20 μg i.p. (100%), 200 mg/kg p.o.
Text: as §4

P19 cells = experiment: NMDA-induced neuronal death in P19 cells; type: cell-based; conditions: NMDA alone 100% death, control without NMDA 0%; negative values = proliferation
[6] = test system: breast cancer cells MDA-MB-231; experiment: Growth of breast cancer cells MDA-MB-231; type: cell-based; conditions: 72 hours of incubation
Method in brief: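 Cell counts taken with compound, mean of three independent experiments. Applies to MDA-MB-231.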

[7] = test system: heterotrimeric Gi1 protein; experiment: Binding of heterotrimeric Gi1 protein to model membranes (centrifugation, immunoblotting); conditions: phosphatidylcholine:phosphatidylethanolamine (6:4) 2 mM phospholipid, 0.1 μM D-PUFA; control 100 ± 5; in % (unit assumed)
Text: The net result is a regulation of cell signalling leading to the reversal of various pathological processes, as shown later. […] The Control is a sample of model membranes in the absence of fatty acids.

| SMILES | Blood pressure [2] | Levels of apoA-I [3] | Expression of α-synuclein (α-synuclein) | COX-2 protein levels (expression), percentages of inhibition compared to positive control (COX-2) | Cholesterol in serum (top number) [4] | Glucose in serum (bottom number) [4] | Triglycerides in serum (central number) [4] | IC50 [5] | Production of TNF-α in serum (TNF-α) | Neuronal death (P19 cells) after treatment with NMDA (P19 cells) | Temperature of lamellar-to-hexagonal transition [1] | IC50 (Jurkat cells) | IC50 (lung cancer cells A549) | IC50 [6] | also measured |
| --- | --- | --- | --- | --- | --- | --- | --- | --- | --- | --- | --- | --- | --- | --- | --- |
| CCCCCC=CCC=CCCCCCCC(O)C(=O)O (stereo not shown) [182A1, 2-hydroxy-9,12-octadecadienoic acid] | 204 mm Hg | 146% | 50% | 24% | 78% | 84% | 91% | 197 µM | 64% | −60% | – | – | – | – | Transition temperature (lamellar to HII) [1]: 51.8 °C; IC50 (Jurkat cells; Homo sapiens, Jurkat): 713 µM; Percentage of total PUFA (3T3 cells): 42.3 ± 3.1%; IC50 (lung cancer cells A549; Homo sapiens, A549): 944 µM; IC50 (HepG2 cells): 212 µM; IC50 ([6]; Homo sapiens, MDA-MB-231): 388 µM; G protein binding [7]: 312 ± 12 |
| CCCCCC=CCC=CCCCCCCC(O)C(=O)[O-].[Na+] (stereo not shown) [182B1] | 201 mm Hg | 178% | 61% | 39% | 89% | 87% | 72% | 198 µM | 79% | −62% | 52.1 °C | 377 µM | 196 µM | 379 µM | – |
| CCC=CCC=CCC=CCCCCCCC(O)C(=O)O (stereo not shown) [183A1, 2-hydroxy-9,12,15-octadecatrienoic acid] | 201 mm Hg | 134% | 45% | 20% | 76% | 87% | 81% | 397 µM | 70% | −55% | – | – | – | – | Transition temperature (lamellar to HII) [1]: 51.6 °C; IC50 (Jurkat cells; Homo sapiens, Jurkat): 198 µM; Percentage of total PUFA (3T3 cells): 42.8 ± 2.2%; IC50 (lung cancer cells A549; Homo sapiens, A549): 200 µM; IC50 (HepG2 cells): 380 µM; IC50 ([6]; Homo sapiens, MDA-MB-231): 380 µM; G protein binding [7]: 328 ± 9 |
| CCCCCC=CCC=CCC=CCCCC(O)C(=O)[O-].[Na+] (stereo not shown) [183B2] | 182 mm Hg | 285% | 38% | 29% | 77% | 86% | 76% | 377 µM | 78% | −66% | 51 °C | 184 µM | 197 µM | 156 µM | – |
| CCCCCC=CCC=CCC=CCC=CCCC(O)C(=O)[O-].[Na+] (stereo not shown) [204B1] | 202 mm Hg | 144% | 36% | 28% | 71% | 89% | 69% | 396 µM | 26% | −71% | 50.2 °C | 104 µM | 413 µM | 345 µM | – |
| CCC=CCC=CCC=CCC=CCC=CCCC(C)C(=O)[O-].[Na+] (stereo not shown) [205L1] | 198 mm Hg | 376% | 67% | 53% | 79% | 85% | 78% | 435 µM | 76% | −35% | – | – | 362 µM | 253 µM | – |
| CCC=CCC=CCC=CCC=CCC=CCCC(OC=O)C(=O)OCC (stereo not shown) [205V1] | 191 mm Hg | 315% | 81% | 76% | 85% | 84% | 79% | 510 µM | 84% | −27% | – | – | 325 µM | 298 µM | – |

Source: US11253497B2, “Use of derivatives of polyunsaturated fatty acids as medicaments” (Lipopharma Therapeutics, S.L., priority 2009, dated 2022)
